The source made the active and inactive calls.
Columns and labels:
[1] = alpha-synuclein stem-loop luciferase translation blockers – H4 neuroglioma cells, luminescence, confirmation (AID 1988); format: functional, cell-based
BJ [2] = experiment: growth inhibition of engineered Ras-driven BJ cells – cell-based, alamar blue fluorescence, cherrypicked samples, dose response (AID 2631); format: functional; settings: Homo sapiens;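 also: confirmatory dose-response assay in RAS-dependent BJ fibroblasts engineered with TERT, LT and ST, with cytotoxicity read by fluorescence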
cells = format: functional, cell-based
BJ [3] = experiment: BJ-TERT-LT-ST fibroblast viability loss – cell-based, RAS-independent, luminescence, dose response (AID 1935); format: functional; settings: Homo sapiens;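 also: BJ fibroblasts immortalized with TERT plus LT and ST oncogenes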
[4] = DRD fibroblast viability loss – cell-based, non-viral oncogenic, luminescence, dose response (AID 1934); format: functional; settings: Homo sapiens
[5] = molecular target: T1, Microphthalmia-associated transcription factor (Homo sapiens, UniProt O75030); experiment: reducers of TRPM1 reporter luminescence, concentration series – cell-based, SK-MEL-5, cherry-picked, set 3, MITF inhibitor project, dose response (AID 493073); format: functional;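 also: SK-MEL-5 melanoma cells with luciferase driven by the MITF target TRPM1 promoter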
T1 sequence (O75030 whole entry): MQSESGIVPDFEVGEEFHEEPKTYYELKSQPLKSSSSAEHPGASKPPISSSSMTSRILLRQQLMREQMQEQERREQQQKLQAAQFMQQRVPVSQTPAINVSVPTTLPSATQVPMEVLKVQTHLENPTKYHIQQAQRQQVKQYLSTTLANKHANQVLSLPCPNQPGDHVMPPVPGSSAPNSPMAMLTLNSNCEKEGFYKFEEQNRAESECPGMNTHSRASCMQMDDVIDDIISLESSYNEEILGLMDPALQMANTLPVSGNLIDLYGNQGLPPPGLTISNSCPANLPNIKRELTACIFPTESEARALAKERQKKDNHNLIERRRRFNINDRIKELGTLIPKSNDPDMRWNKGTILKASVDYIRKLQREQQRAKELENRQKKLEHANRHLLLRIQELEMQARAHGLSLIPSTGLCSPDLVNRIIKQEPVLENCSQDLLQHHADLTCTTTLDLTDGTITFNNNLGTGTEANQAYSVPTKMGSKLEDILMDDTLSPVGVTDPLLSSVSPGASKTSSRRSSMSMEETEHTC

BJ [6] = experiment: cells; format: functional, cell-based; settings: Homo sapiens
[7] = alpha-synuclein stem-loop translation blockers – luminescence, H4 neuroglioblastoma cells, dose confirmation, confirmation (AID 2454); format: functional, cell-based;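 also: H4 neuroglioblastoma cells carrying an alpha-synuclein 5'UTR luciferase reporter; potency for inhibition of the luciferase signal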
[8] = Luminescence Cell-Based Dose Response HTS to Identify Inhibitors of 5'UTR Stem-Loop Driven Prion Protein mRNA Translation in H4 Neuroglioblastoma Cells. [Related pubchem assays: 1827 (Project Summary), 1813 (Primary HTS)]; format: functional
BJ [9] = experiment: BJ-TERT fibroblast viability loss – cell-based, RAS-independent, luminescence, dose response (AID 1933); format: functional; settings: Homo sapiens
[10] = luciferase reporter signal reduction – luminescence, H4-C neuroglioblastoma cells, dose response (AID 2458); format: functional, cell-based;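 also: H4 neuroglioblastoma cells stably carrying a luciferase reporter gene fusion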
[11] = MIN6 cell viability loss – mouse insulinoma, cytotoxicity control, dose response (AID 2122); format: functional;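 also: confirmatory high-throughput counterscreen run to flag cytotoxic compounds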
[12] = decrease of insulin promoter-GFP reporter – imaging, high-content screening, mouse beta cells (AID 1628); format: functional; settings: MIN6
HeLa = experiment: ATP-based viability loss in HeLa cells – cell-based, CellTiter-Glo luminescence, cherry-pick samples, cytotoxicity control for MITF activator project, dose response (AID 540259); format: functional; settings: Homo sapiens
[13] = microbe, parasite or virus in culture; format: functional; settings: Mycobacterium tuberculosis
INS1 = experiment: INS-1E survival protection against cytokine death – cell-based, luminescence, retest, dose response (AID 449756); format: functional; settings: Rattus norvegicus;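 also: cell death triggered by IL-1 beta plus TNF-alpha plus IFN-gamma mixture; protective hits raise ATP signal compared with cytokine alone wells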
[14] = viability loss of HMLE_sh_eGFP cells – cell-based, luminescence, counter-screen for HMLE_sh_ECad selective toxicity project, dose response (AID 463074); format: functional, Homo sapiens;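 also: HMLE human mammary epithelial cells expressing control shRNA against eGFP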
[15] = Luminescence Cell-Based Dose Retest to Confirm Inhibitors of Cancer Stem Cells. [Related pubchem assays (depositor defined):AID2717, AID2721]; format: functional; settings: Homo sapiens
Paired box protein Pax-8 = Paired box protein Pax-8 (Homo sapiens, UniProt Q06710); experiment: PAX8 transcriptional activity inhibition in RMG-I – RMG-I cells, luciferase, cherry-pick, dose response (AID 687027); format: functional, cell-based;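 also: luciferase reporter driven by Pax8 target thyroperoxidase promoter measured by SteadyGlo luminescence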
Sequence of Paired box protein Pax-8 (Q06710 whole entry): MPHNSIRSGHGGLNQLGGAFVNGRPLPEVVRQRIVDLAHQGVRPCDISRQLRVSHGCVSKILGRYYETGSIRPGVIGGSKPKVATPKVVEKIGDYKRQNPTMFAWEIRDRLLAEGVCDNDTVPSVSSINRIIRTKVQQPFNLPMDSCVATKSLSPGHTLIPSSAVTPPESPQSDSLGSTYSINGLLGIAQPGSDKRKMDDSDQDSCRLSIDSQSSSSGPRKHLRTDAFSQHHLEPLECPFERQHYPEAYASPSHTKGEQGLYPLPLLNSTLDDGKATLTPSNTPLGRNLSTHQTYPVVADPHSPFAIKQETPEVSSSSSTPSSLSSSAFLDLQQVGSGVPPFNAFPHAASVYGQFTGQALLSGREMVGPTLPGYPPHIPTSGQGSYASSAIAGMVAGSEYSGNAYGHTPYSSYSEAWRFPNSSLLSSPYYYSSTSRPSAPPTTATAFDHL

[16] = reduction of Shn3 3'UTR-driven luciferase in osteoblasts – cell-based, Clone20 osteoblasts, firefly luciferase, cherry-picked, dose response (AID 624132); format: functional;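 also: firefly luciferase luminescence from reporter carrying the Shn3 3'UTR in osteoblasts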
[17] = loss of viability in HepG2 cells – cell-based, CellTiter-Glo, cherry-picked, cytotoxicity control for Shn3 inhibitor project, dose response (AID 624134); format: functional
[18] = non-specific 3'UTR reporter inhibition in Clone20-Shn3RL – cell-based, Renilla luciferase, cherry-picked, counter-screen for Shn3 inhibitor project, dose response (AID 624133); format: functional
Vero = experiment: viability of Vero cells under compound – cytotoxicity control for flavivirus capping enzyme inhibitors (AID 588742); format: functional; settings: Chlorocebus sabaeus
Estrogen receptor beta = Estrogen receptor beta (Homo sapiens, UniProt Q92731);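 also: recombinant ER-beta bound to coactivator SRC1 peptide in presence of estradiol agonist; inhibitors block coactivator peptide binding and lower the FRET signal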
Sequence of Estrogen receptor beta (Q92731 whole entry): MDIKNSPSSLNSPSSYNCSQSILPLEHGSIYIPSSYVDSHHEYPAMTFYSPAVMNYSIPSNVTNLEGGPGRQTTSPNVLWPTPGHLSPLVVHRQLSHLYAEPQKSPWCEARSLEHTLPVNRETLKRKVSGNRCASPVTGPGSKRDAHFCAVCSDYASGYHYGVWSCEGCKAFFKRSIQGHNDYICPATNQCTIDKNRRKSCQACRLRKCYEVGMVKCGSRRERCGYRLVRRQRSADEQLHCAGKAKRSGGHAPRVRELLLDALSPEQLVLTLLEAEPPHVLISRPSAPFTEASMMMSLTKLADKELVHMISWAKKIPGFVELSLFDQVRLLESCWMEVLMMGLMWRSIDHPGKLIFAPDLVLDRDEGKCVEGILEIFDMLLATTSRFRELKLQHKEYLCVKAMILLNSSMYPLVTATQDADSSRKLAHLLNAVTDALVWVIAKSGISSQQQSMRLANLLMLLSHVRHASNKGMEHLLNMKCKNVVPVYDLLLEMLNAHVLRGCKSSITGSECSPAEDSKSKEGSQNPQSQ

Estrogen receptor = molecular target: T2, Estrogen receptor (Homo sapiens, UniProt P03372);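 also: potency for inhibiting coactivator peptide recruitment to the receptor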
T2 sequence (P03372 whole entry): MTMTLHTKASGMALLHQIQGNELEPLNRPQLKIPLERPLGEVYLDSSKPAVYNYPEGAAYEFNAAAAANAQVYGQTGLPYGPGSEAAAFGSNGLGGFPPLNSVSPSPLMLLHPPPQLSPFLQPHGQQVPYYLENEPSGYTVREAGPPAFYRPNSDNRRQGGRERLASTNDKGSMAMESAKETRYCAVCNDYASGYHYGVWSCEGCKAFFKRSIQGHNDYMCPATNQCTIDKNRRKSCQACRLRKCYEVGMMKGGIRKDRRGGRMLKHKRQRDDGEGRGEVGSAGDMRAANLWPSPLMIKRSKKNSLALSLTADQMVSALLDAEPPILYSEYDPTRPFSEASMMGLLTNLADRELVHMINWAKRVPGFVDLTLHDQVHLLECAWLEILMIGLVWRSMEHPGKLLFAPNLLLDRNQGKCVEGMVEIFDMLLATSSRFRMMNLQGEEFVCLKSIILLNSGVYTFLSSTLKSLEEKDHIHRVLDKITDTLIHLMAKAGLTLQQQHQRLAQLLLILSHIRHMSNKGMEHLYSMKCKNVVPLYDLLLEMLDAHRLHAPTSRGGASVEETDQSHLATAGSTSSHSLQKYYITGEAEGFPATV

[19] = molecular target: T3, Ubiquitin-conjugating enzyme E2 N (Homo sapiens, UniProt P61088); format: functional
T3 sequence (P61088 whole entry): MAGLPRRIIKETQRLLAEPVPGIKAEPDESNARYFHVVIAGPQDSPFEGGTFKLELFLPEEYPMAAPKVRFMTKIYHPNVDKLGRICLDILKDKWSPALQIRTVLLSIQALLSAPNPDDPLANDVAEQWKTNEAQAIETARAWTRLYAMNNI

[20] = luciferase reporter signal suppression in cells – H4 neuroglioma cells, luminescence, dose response (AID 1990); format: functional, cell-based
Bcl-2-related protein A1 = molecular target: T4, Bcl-2-related protein A1 (Mus musculus, UniProt Q07440); format: functional;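 also: confirmatory dose–response counterscreen on Bfl-1, used to check hits from a UBC13 polyubiquitin inhibitor campaign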
T4 sequence (Q07440 whole entry): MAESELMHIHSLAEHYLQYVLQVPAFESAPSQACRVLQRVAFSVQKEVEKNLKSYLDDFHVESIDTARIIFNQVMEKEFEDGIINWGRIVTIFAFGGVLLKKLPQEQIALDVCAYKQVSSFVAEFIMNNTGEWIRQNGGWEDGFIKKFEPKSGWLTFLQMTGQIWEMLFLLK

[21] = molecular target: T3, Ubiquitin-conjugating enzyme E2 N; format: functional; remark: listed apart in the source
[22] = molecular target: Luciferin 4-monooxygenase (Photinus pyralis, UniProt P08659); experiment: Counter Screen for Luciferase-based Assay Positives. [Related pubchem assays: 620, 618, 411 ]
Sequence of Luciferin 4-monooxygenase (P08659 whole entry): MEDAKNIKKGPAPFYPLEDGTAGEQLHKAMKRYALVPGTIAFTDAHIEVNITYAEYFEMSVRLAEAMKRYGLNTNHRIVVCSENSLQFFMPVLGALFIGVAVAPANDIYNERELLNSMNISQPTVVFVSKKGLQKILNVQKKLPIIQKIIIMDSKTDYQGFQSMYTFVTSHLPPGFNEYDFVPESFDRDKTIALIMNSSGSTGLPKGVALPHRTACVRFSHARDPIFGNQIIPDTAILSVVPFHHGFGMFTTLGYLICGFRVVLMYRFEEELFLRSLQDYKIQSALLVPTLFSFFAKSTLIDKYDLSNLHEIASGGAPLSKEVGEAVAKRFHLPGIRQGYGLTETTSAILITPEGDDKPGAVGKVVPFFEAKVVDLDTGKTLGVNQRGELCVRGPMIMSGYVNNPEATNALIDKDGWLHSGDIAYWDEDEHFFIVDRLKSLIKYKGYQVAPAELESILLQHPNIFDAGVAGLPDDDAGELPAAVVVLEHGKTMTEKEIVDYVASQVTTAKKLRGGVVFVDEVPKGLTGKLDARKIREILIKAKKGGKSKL

HT-1080 = experiment: HT1080 cell viability loss – fluorescence readout (AID 620); format: functional, cell-based; settings: Homo sapiens
[23] = molecular target: T5, Rac GTPase-activating protein 1 (Homo sapiens, UniProt Q9H0H5); experiment: blockers of MgcRacGAP-driven Rac1 GTP hydrolysis – biochemical, ADP Hunter fluorescence, primary and confirmatory, confirmation (AID 624330); format: functional
T5 sequence (Q9H0H5 whole entry): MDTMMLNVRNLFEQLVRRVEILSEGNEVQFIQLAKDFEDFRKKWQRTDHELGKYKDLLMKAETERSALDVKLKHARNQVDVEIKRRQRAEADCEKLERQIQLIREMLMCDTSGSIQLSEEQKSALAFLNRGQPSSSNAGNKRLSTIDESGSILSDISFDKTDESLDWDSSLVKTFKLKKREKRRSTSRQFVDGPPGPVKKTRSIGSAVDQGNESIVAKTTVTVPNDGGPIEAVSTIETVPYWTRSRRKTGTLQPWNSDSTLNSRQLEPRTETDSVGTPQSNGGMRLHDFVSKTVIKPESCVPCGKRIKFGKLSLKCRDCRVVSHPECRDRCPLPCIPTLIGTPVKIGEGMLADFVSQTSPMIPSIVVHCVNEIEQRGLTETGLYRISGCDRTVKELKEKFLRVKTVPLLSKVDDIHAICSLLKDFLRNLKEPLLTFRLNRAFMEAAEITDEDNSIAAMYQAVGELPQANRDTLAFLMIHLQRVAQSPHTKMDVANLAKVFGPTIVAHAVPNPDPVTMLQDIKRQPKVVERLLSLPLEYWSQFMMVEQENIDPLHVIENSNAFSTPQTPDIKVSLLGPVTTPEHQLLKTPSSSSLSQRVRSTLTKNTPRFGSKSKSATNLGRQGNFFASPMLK

Cytochrome P450 3A4 = Cytochrome P450 3A4 (Homo sapiens, UniProt P08684);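 also: CYP3A4 tested as one member of a cytochrome P450 panel screen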
Sequence of Cytochrome P450 3A4 (P08684 whole entry): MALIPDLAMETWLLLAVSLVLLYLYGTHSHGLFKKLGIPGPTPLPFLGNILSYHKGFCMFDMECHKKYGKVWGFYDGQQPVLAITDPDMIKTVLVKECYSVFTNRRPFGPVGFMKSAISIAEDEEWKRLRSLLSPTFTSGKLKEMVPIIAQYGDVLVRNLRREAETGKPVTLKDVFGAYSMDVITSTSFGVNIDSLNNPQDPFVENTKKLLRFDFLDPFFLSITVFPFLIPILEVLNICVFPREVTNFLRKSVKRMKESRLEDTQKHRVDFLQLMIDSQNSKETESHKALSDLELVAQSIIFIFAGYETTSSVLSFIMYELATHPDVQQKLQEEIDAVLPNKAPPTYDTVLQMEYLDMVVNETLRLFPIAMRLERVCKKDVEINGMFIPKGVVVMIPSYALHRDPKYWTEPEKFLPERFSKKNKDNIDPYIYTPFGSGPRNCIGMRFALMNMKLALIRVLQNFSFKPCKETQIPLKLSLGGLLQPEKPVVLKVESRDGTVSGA

## COc1cc2c(c(OC)c1OC)-c1ccc(N(C)CC(OC)OC)c(=O)cc1[C@@H](NC(C)=O)CC2
[1]
  EC50: < 0.1 µM (active)
BJ [2]
  EC50: 0.117 µM (active)
cells
  EC50: > 12 µM (not active)
BJ [3]
  EC50: 20 µM (inconclusive)
[4]
  EC50: 2.35 µM (active)
[5]
  AC50: 2.04 µM (active)
BJ [6]
  EC50: 3.06 µM (active)
[7]
  EC50: 1.22 µM (active)
[8]
  EC50: 8.84 µM (active)
BJ [9]
  EC50: 2.59 µM (inconclusive)
[10]
  EC50: > 12 µM (not active)

## COc1ccc(-c2c3c(nc4sc5c(O)nc(C)nc5c24)CCC3)cc1
[11]
  IC50: > 16 µM (inactive)
[12]
  IC50: 0.847 µM (active)

## Nc1ccc(O)c2c(=O)cc(-c3ccccc3Cl)oc12
HeLa
  AC50: 79.6 µM (active)

## CCCCn1cnc2c(c(-c3ccccc3)c(-c3ccccc3)n2Cc2ccco2)c1=N
[13]
  CC50: > 40 µM (active)
BJ [2]
  EC50: 76.5 µM (active)
BJ [3]
  EC50: 11.1 µM (inconclusive)
[4]
  EC50: 9.06 µM (active)
INS1
  AC50: > 260 µM (inactive)
[14]
  AC50: 50.9 µM (active)
BJ [6]
  EC50: 36.1 µM (active)
BJ [9]
  EC50: 7.71 µM (active)
[15]
  AC50: 49.8 µM (active)
Paired box protein Pax-8
  AC50: 9.7 µM (active)

## CC(CCCC(C)(C)O)NC(=O)c1cc(COc2ccc3ncccc3c2)on1 (centres undefined)
[16]
  AC50: 1.75 µM (active)
INS1
  AC50: 4.37 µM (active)
[17]
  AC50: 3.65 µM (active)
[18]
  AC50: 1.06 µM (active)
[11]
  IC50: 1.48 µM (active)
[12]
  IC50: 1.96 µM (active)

## O=C(Nc1ccc(N2CCCC2)cc1)C(Cl)c1ccccc1 (centres undefined)
Vero
  CC50: > 40 µM (active)
Estrogen receptor beta
  IC50: > 50 µM (not active)
Estrogen receptor
  IC50: > 50 µM (not active)

## COc1ccc(C(=O)Nn2c(SCC(=O)NCc3ccccc3)nc3ccccc3c2=O)cc1
[1]
  EC50: 0.403 µM (inconclusive)
[19]
  IC50: 19.4 µM (active)
[20]
  EC50: 9.49 µM (active)
Bcl-2-related protein A1
  IC50: > 20 µM (inactive)
[8]
  EC50: 9.71 µM (active)
[21]
  IC50: > 20 µM (inactive)
[22]
  EC50: 2.51 µM (active)
HT-1080
  EC50: > 50 µM (not active)

## C#CCOCCOCCOCCNc1nc(N2CCN(C(=O)[C@H](CCCCN)n3cc([C@@H](N)CC(C)C)nn3)CC2)nc(N2CCN(C(=O)[C@H](CCCCN)n3cc([C@@H](N)CC(C)C)nn3)CC2)n1
[19]
  IC50: 14.4 µM (active)
Bcl-2-related protein A1
  IC50: > 20 µM (inactive)
[21]
  IC50: 14 µM (active)
[23]
  IC50: 190 µM (active)

## Cc1s/c(=N\C(=O)c2ccco2)n(C)c1-c1ccccc1
Cytochrome P450 3A4
  AC50: inconclusive

## CCN(CC)S(=O)(=O)c1cccc(C(=O)N/N=C(\C)c2cccs2)c1
HeLa
  AC50: 50.9 µM (active)

## O=C(Cc1cccc2ccccc12)N/N=C/c1ccc(Sc2nc3ccccc3s2)o1
Cytochrome P450 3A4
  AC50: inconclusive

## CC1CCN(c2ccc(/C=N/n3nnnc3N)cc2[N+](=O)[O-])CC1
Cytochrome P450 3A4
  AC50: inconclusive

— ChEMBL document CHEMBL1201862, “PubChem BioAssay data set” (2004)
